# Tests used:
# HeLa = assay: Growth of cancer cell lines, MTT reactivity (HeLa); format: cell-based, human; conditions: mean drug concentration causing 50% cell killing, 3-4 experiments, 72 to 96 h, read-out: IC 50 (μM) HeLa
# Procedure: (§1) The sensitivities of the two cancer cell lines HeLa, which is a sensitive human cervix epitheloid carcinoma cell line, and CoLo 320DM, which is an intrinsically multidrug resistant human colon adeno-carcinoma cell line, to 13 of the complexes of the invention was tested.
# CoLo 320DM = assay: Growth of cancer cell lines, MTT reactivity (CoLo 320DM); format: cell-based, human; conditions: mean drug concentration causing 50% cell killing, 3-4 experiments, 72 to 96 h, multidrug resistant line, read-out: IC 50 (μM) CoLo 320DM
# Procedure: as §1
# COR L23 = assay: Growth of cancer cell lines, MTT reactivity (COR L23); format: cell-based, human; conditions: mean drug concentration causing 50% cell killing, 3-4 experiments, 72 to 96 h, read-out: IC 50 (μM) COR L23
# Procedure: (§2) In these experiments cancer cell lines were cultured in standard tissue culture medium supplemented with 10% fetal calf serum (FCS) at 37° C. In an atmosphere of 5% CO2 in 96 well round bottom microtitre plates. The cultures were treated with either ferrocene-containing β-diketones or their rhodium complexes at varying concentrations for 72 to 96 h, and the extent of cell growth was assayed by MTT [3-(4,5-dimethylthiazol-2yl)-2,5-diphenyl tetrazolium bromide] reactivity, which detects only viable cells.
# COR L23/CPR = assay: Growth of cancer cell lines, MTT reactivity (COR L23/CPR); format: cell-based, human; conditions: mean drug concentration causing 50% cell killing, 3-4 experiments, 72 to 96 h, platinum resistant variant, read-out: IC 50 (μM) COR L23/CPR
# Procedure: as §2
# [1] = tested on: PHA-stimulated human lymphocytes; assay: Proliferation of PHA-stimulated human lymphocytes, MTT reactivity; conditions: for IC50: read-out: IC 50 (μM) PHA-stimulated lymphocytes, mean drug concentration causing 50% cell killing, PHA 2.5 μg/ml, 72 h, MTT; for Tumor specificity: activity against tumor cells versus stimulated normal human lymphocytes: tumor cells versus PHA-stimulated lymphocytes (Table 1)
# Procedure: In these experiments suspensions of purified human mononuclear leukocytes were cultured in RPMI medium supplemented with 10% fetal calf serum (FCS) at 37° C. in an atmosphere of 5% CO2 in 96 well round bottom microtitre plates. To some of the wells a mitogen (phytohaemagglutinin, PHA) was added at a concentration of 2.5 μg/ml. The cultures were treated with either ferrocene-containing β-diketones or their rhodium complexes at varying concentrations for 72 h, and the extent of cell growth was assayed by MTT reactivity.
# [2] = tested on: Chinese hamster ovary (CHO) cells; assay: Survival of CHO cells after irradiation under hypoxic conditions; format: cell-based; conditions: for Mean Inactivation Dose (Gy) / Dose Modifying Factor (DMF): hypoxic conditions; for Mean Inactivation Dose (Gy): 8 MV photon beam; for Dose Modifying Factor (DMF): ratio of mean inactivation doses; for Sensitivity of CHO cells to irradiation under hypoxic conditions (in words): submicromolar concentrations
# Procedure: CHO cells were treated in glass test tubes with non-toxic concentrations (0.39 μM and 0.78 μM) of the two rhodium-ferrocene complexes [Rh(fctca)(cod)] and [Rh(fctfa)(cod)] and irradiated with an 8 MV photon beam in a modular incubator chamber with a 2 cm tissue equivalent wax buildup (8MVmax) under aerobic and hypoxic conditions.
# Neither of the two rhodium complexes tested increased the sensitivity of CHO cells to irradiation in an aerobic environment (results not shown). However, both complexes increased the sensitivity of CHO cells under hypoxic conditions (FIGS. 4 and 5). A dose-modifying factor of 2.9 was obtained under hypoxic conditions for 0.78 μM [Rh(fctfa)(cod)] (Table 2) and 1.9 for 0.39 μM [Rh(fctca)(cod)] (Table 3). The dose-modifying factors were calculated as the ratio of mean inactivation doses [calculated from the respective inactivation parameters obtained from the linear quadratic fit of the cell growth fraction (S)]. Published dose modifying factors (DMFs) measured for cisplatin range from 1.2-2 (Chibber R, Stratford I J, O'Neill P, Sheldon P W, Ahmed I, Lee B. 1985. The interaction between radiation and complexes of cis-Pt (II) and Rh (II): Studied at the molecular level. Int J Radiat Biol 48:513-524; Van De Vaart,. P J M, Klaren, H M, Holland I, Begg A C. 1997. Oral platinum analogue JM216, a radiosensitizer in oxic murine cells. Int J Radiat Biol 72(6):675-683).
# [3] = Anticancer activity of synthesis intermediates; conditions: intermediates of the published synthesis route
# [4] = published values; cited from earlier work
Compound,IC50 (HeLa),IC50 (CoLo 320DM),IC50 (COR L23),IC50 (COR L23/CPR),IC50 [1],also measured
"O=CCC(=O)[c-]1cccc1.[Fe+2].c1cc[cH-]c1 [Hfch, ferrocenoylacetaldehyde]",73.4 µM,80.8 µM,–,–,–,–
"O=C(CC(=O)C(Cl)(Cl)Cl)[c-]1cccc1.[Fe+2].c1cc[cH-]c1 [Hfctca, ferrocenoyltrichloroacetone]",37.7 µM,28.4 µM,12.5 µM,20.1 µM,67.5 µM,"Radiosensitisation, initial tests (in words) [2]: promising"
C1=C\CC/C=C\CC/1.CC(=O)/C=C(/C)O.[Rh] [Rh(acac)(cod)],97.3 µM,> 100 µM,–,–,–,–
"C1=CCCC=CCC1.O=C(C=C([O-])c1ccccc1)[c-]1cccc1.[Fe+2].[Rh+].c1cc[cH-]c1 [Rh(bfcm)(cod), (η^4-1,5-cyclooctadiene)(1-ferrocenyl-3-phenyl-1,3-propanedionato-κ^2O,O′)rhodium(1)]",28.3 µM,87.1 µM,22.5 µM,22 µM,97.2 µM,–
"C1=CCCC=CCC1.CC([O-])=CC(=O)[c-]1cccc1.[Fe+2].[Rh+].c1cc[cH-]c1 [Rh(fca)(cod), (η^4-1,5-cyclooctadiene)(1-ferrocenyl-1,3-butanedionato-κ^2O,O′)rhodium(1)]",64.4 µM,56.6 µM,–,–,–,–
"C1=CCCC=CCC1.O=C(C=C([O-])C(Cl)(Cl)Cl)[c-]1cccc1.[Fe+2].[Rh+].c1cc[cH-]c1 [Rh(fctca)(cod), (η^4-1,5-cyclooctadiene)(1-ferrocenyl-4,4,4-trichloro-1,3-butanedionato-κ^2O,O′)rhodium(1)]",7.9 µM,3 µM,1.3 µM,2 µM,4.7 µM,Mean Inactivation Dose (Gy) ([2]; 0.39 μM complex): 3.73 Gy; Dose Modifying Factor (DMF) ([2]; 0.39 μM complex): 1.9; Mean Inactivation Dose (Gy) ([2]; 0.78 μM complex): 4.46 Gy; Dose Modifying Factor (DMF) ([2]; 0.78 μM complex): 1.6; Sensitivity of CHO cells to irradiation under hypoxic conditions (in words) [2]: compare favorably with cisplatin
"C1=CCCC=CCC1.O=C(C=C([O-])C(F)(F)F)[c-]1cccc1.[Fe+2].[Rh+].c1cc[cH-]c1 [Rh(fctfa)(cod), (η^4-1,5-cyclooctadiene)(1-ferrocenyl-4,4,4-trifluooro-1,3-butanedionato-κ^2O,O′)rhodium(1)]",12.5 µM,13.4 µM,8.5 µM,5.8 µM,41.6 µM,Tumor specificity: activity against tumor cells versus stimulated normal human lymphocytes [1]: 4-5 times; Mean Inactivation Dose (Gy) ([2]; 0.39 μM complex): 2.41 Gy; Dose Modifying Factor (DMF) ([2]; 0.39 μM complex): 2.6; Mean Inactivation Dose (Gy) ([2]; 0.78 μM complex): 2.19 Gy; Dose Modifying Factor (DMF) ([2]; 0.78 μM complex): 2.9; Sensitivity of CHO cells to irradiation under hypoxic conditions (in words) [2]: compare favorably with cisplatin
[Cl][Rh]([Cl])[Cl] [RhCl3],–,–,–,–,–,Significant anticancer activity [3]: none
"C1=CCCC=CCC1.O=C(C=C[O-])[c-]1cccc1.[Rh+].[Ru+2].c1cc[cH-]c1 [[Rh(RcH)(cod)], (η^4-1,5-cyclooctadiene)(1-ruthenocenyl-1,3-propanedionato-κ^2O,O′)rhodium(1)]",52 µM,68.8 µM,34 µM,39.6 µM,–,–
"C1=CCCC=CCC1.O=C(C=C([O-])[c-]1cccc1)c1ccccc1.[Rh+].[Ru+2].c1cc[cH-]c1 [[Rh(brcm)(cod)], (η^4-1,5-cyclooctadiene)(1-ruthenocenyl-3-phenyl-1,3-propanedionato-κ^2O,O′)rhodium(1)]",16.2 µM,20.4 µM,15.8 µM,14.1 µM,–,–
"C1=CCCC=CCC1.O=C(C=C([O-])[c-]1cccc1)[c-]1cccc1.[Fe+2].[Rh+].[Ru+2].c1cc[cH-]c1.c1cc[cH-]c1 [[Rh(fcrcm)(cod)], (η^4-1,5-cyclooctadiene)(1-ferrocenyl-3-ruthenocenyl-1,3-propanedionato-κ^2O,O′)rhodium(1)]",17.1 µM,29.2 µM,10.1 µM,20.1 µM,–,–
"C1=CCCC=CCC1.CC(=O)C=C([O-])[c-]1cccc1.[Rh+].[Ru+2].c1cc[cH-]c1 [[Rh(rca)(cod)], (η^4-1,5-cyclooctadiene)(1-ruthenocenyl-1,3-butanedionato-κ^2O,O′)rhodium(1)]",4.86 µM,3 µM,0.18 µM,2.74 µM,–,–
"C1=CCCC=CCC1.O=C(C=C([O-])C(F)(F)F)[c-]1cccc1.[Rh+].[Ru+2].c1cc[cH-]c1 [[Rh(rctfa)(cod)], (η^4-1,5-cyclooctadiene)(1-ruthenocenyl-4,4,4-trifluooro-1,3-butanedionato-κ^2O,O′)rhodium(1)]",54.7 µM,67.4 µM,49.2 µM,48 µM,–,–
C1=C\CC/C=C\CC/1.C1=C\CC/C=C\CC/1.[Cl-].[Cl-].[Rh].[Rh] [[RhCl(cod)]2],–,–,–,–,–,Significant anticancer activity [3]: none
N.N.[Cl][Pt][Cl] [cisplatin],–,–,–,–,–,Published dose modifying factors (DMFs) [4]: 1.2-2
"(η^4-1,5-cyclooctadiene)(1,3-diferrocenyl-1,3-propanedionato-κ^2O,O′)rhodium(1) [Rh(dfcm)(cod)]",18.4 µM,70.8 µM,19.9 µM,30.8 µM,42.2 µM,–
"(η^4-1,5-cyclooctadiene)(1-ferrocenyl-1,3-propanedionato-κ^2O,O′)rhodium(1) [Rh(FcH)(cod)]",62.4 µM,35.4 µM,–,–,–,–
acetyl ferrocene,–,–,–,–,–,Significant anticancer activity [3]: none
benzoylferrocenoylmethane [Hbfcm],54.2 µM,85.1 µM,66.8 µM,80.4 µM,> 100 µM,–
diferrocenoylmethane [Hdfcm],54.4 µM,64.3 µM,75.4 µM,74.4 µM,> 100 µM,–
ferrocenoylacetone [Hfca],66.6 µM,57.1 µM,–,–,–,–
ferrocenoyltrifluoroacetone [Hfctfa],6.8 µM,7.3 µM,4.5 µM,6.3 µM,83.1 µM,"Tumor specificity: activity against tumor cells versus stimulated normal human lymphocytes [1]: eight; Radiosensitisation, initial tests (in words) [2]: promising"

# From patent US20040092584A1, “Substance or composition for the treatment of cancer” (priority 2000, published 2004)
